Tests used:
NCI-H358 cells = assay: Proliferation inhibition of NCI-H358 cells (CellTiter-Glo); format: cell-based; conditions: Homo sapiens, NCI-H358, 72 h; 3 days incubation
Description: Experimental method: 3000 cells (90 μL of cell suspension) were inoculated to each well of a 96-well cell culture plate (Corning, #3610). The culture plate was incubated in an incubator overnight (37° C., 5% CO2). On the next day, 10 μL of gradient dilutions of the test compound solution (the final DMSO content was 0.2%, V/V, the final concentration of the reaction system ranged from 10 μM to 4.5 nM) was added to each well of the culture plate. At the same time, full activity control (compound only with DMSO) and full inhibition control (no cells) were set up on the reaction plate. The culture plate was incubated in the incubator for 3 days (37° C., 5% CO2).
After completion of the incubation, 50 μL of CellTiter-Glo reagent was added to each well of the cell culture plate, which was left to stand at room temperature for 10 minutes. The chemiluminescence signal value was measured in the Synergy H1 full-function microplate reader (BioTek). […] The IC50 value of the test compounds was calculated by fitting the percentage inhibition rate and data of eight concentrations to a four-parameter nonlinear logic formula with GraphPad prism.
The IC50 value was calculated by fitting the data of different concentrations and corresponding percentage inhibition rates to a four-parameter nonlinear logic formula with GraphPad prism.

[1] = target: T1, SHP-2 full-length protein (Homo sapiens, UniProt Q06124); assay: Inhibition of SHP-2 kinase activity (Homogeneous Full Length SHP-2 Assay Kit); format: biochemical; conditions: relative IC50, full-length SHP-2 with activating peptide
T1 construct: purchased BPS Bioscience 79330
T1 sequence (Q06124 1-593): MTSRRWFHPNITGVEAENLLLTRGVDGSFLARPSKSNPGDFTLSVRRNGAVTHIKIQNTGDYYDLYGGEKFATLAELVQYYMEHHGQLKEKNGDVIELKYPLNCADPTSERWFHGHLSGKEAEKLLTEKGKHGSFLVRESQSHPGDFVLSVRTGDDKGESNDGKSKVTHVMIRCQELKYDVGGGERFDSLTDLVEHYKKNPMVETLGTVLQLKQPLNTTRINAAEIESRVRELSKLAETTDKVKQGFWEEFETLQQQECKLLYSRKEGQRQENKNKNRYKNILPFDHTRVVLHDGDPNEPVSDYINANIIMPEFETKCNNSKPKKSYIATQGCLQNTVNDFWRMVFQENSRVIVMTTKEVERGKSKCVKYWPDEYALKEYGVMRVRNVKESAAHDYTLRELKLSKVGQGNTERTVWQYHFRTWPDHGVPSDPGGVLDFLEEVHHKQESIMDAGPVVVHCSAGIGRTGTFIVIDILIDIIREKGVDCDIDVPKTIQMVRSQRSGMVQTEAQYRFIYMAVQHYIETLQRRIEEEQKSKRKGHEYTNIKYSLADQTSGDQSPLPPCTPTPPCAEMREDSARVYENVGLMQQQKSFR
Description: The objective of this test is to determine the inhibitory effect of the compounds on SHP-2 full-length protein allosteric activity.
Experimental method: Homogeneous Full Length SHP-2 Assay Kit (BPS Bioscience, #79330) was used to determine the in vitro SHP-2 activity. First, 18 μL of Master Mix was added to a 96-well low adsorption microplate (NUNC, #267342), i.e., the reaction buffer with a final concentration of 1× comprised 0.5 μM SHP-2 activating Peptide and 5 mM DTT. After centrifugation, 5 μL of test compound/DMSO was added to each well (the final DMSO content was 1%, V/V, the test compound was dissolved in DMSO to 1 mM, a three-fold serial dilution was carried out to obtain ten concentrations, the final concentration of the reaction system ranged from 1 μM to 0.05 nM). SHP-2 was diluted in the 1× reaction buffer to a final concentration of 0.06 nM, and the resulting solution was added to the reaction microplate (2 μL per well). Full activity control (compound only with DMSO) and full inhibition control (no SHP-2) were set up on the reaction plate. After centrifugation, the reaction mixture was incubated at room temperature for 60 minutes.
After completion of the incubation, 25 μL of Substrate solution, which comprised Substrate with a final concentration of 10 μM and 5 mM DTT, was added to each well. After centrifugation, the reaction mixture was incubated at room temperature for 30 minutes. After completion of the reaction, readings were measured on the Synergy H1 full-function microplate reader (BioTek) (excitation wavelength: 340 nm, emission wavelength: […], gain value: 75).
The IC50 value of the test compounds was calculated by fitting the percentage inhibition rate and data of ten concentrations to a four-parameter nonlinear logic formula with GraphPad prism.

IC50 (NCI-H358 cells)	IC50 [1]	Compound
37 nM	17.8 nM	Nc1nc(N2CCC3(CC2)Cc2ccccc2[C@H]3N)cnc1Sc1ccnc(N)c1C1CC1 [Example 91, (S)-1′-(6-amino-5-((2-amino-3-cyclopropylpyridin-4-yl)thio)pyrazin-2-yl)-1,3-dihydrospiro[indene-2,4′-piperidin]-1-amine]
10.5 nM	4.17 nM	Nc1nc(N2CCC3(CC2)Cc2ccccc2[C@H]3N)cnc1Sc1ccnc(Cl)c1C1CC1 [Example 92, (S)-1′-(6-amino-5-((2-chloro-3-cyclopropylpyridin-4-yl)thio)pyrazin-2-yl)-1,3-dihydrospiro[indene-2,4′-piperidin]-1-amine]
31.1 nM	4.33 nM	Nc1nc(N2CCC3(CC2)Cc2ccccc2[C@H]3N)cnc1Sc1ccnc(C2CC2)c1Cl [Example 93, (S)-1′-(6-amino-5-((3-chloro-2-cyclopropylpyridin-4-yl)thio)pyrazin-2-yl)-1,3-dihydrospiro[indene-2,4′-piperidin]-1-amine]
184 nM	11.7 nM	Nc1nc(N2CCC3(CC2)CC2CC2[C@H]3N)cnc1Sc1ccnc(N)c1C1CC1 (stereo partly drawn) [Example 94, (2R)-1′-(6-amino-5-((2-amino-3-cyclopropylpyridin-4-yl)thio)pyrazin-2-yl)spiro[bicyclo[3.1.0]hexane-3,4′-piperidin]-2-amine]
6.39 nM	6.27 nM	Nc1nc(N2CCC3(CC2)Cc2ccccc2[C@H]3N)c(Br)nc1Sc1ccnc(N)c1Cl [Example 95, (S)-1′-(6-amino-5-((2-amino-3-chloropyridin-4-yl)thio)-3-bromopyrazin-2-yl)-1,3-dihydrospiro[indene-2,4′-piperidin]-1-amine]
41.9 nM	13.2 nM	N[C@@H]1c2ccccc2CC12CCN(c1cnc(Sc3ccnc(C4CC4)c3Cl)cn1)CC2 [Example 97, (S)-1′-(5-((3-chloro-2-cyclopropylpyridin-4-yl)thio)pyrazin-2-yl)-1,3-dihydrospiro[indene-2,4′-piperidin]-1-amine]
18.5 nM	3.93 nM	Nc1nc(N2CCC3(CC2)Cc2ncsc2[C@H]3N)cnc1Sc1ccnc(C2CC2)c1Cl [Example 98, (S)-1′-(6-amino-5-((3-chloro-2-cyclopropylpyridin-4-yl)thio)pyrazin-2-yl)-4,6-dihydrospiro[cyclopenta[d]thiazole-5,4′-piperidin]-6-amine]
32.8 nM	29.6 nM	Nc1nc(N2CCC3(CC2)Cc2nc(Cl)sc2[C@H]3N)cnc1Sc1ccnc(C2CC2)c1Cl [Example 99, (S)-1′-(6-amino-5-((3-chloro-2-cyclopropylpyridin-4-yl)thio)pyrazin-2-yl)-2-chloro-4,6-dihydrospiro[cyclopenta[d]thiazole-5,4′-piperidin]-6-amine]
24.5 nM	0.98 nM	Nc1nc(N2CCC3(CC2)Cc2ccccc2[C@H]3N)cnc1Sc1ccnc(N2CCC2)c1Cl [Example 100, (S)-1′-(6-amino-5-((2-(azetidin-1-yl)-3-chloropyridin-4-yl)thio)pyrazin-2-yl)-1,3-dihydrospiro[indene-2,4′-piperidin]-1-amine]
37.7 nM	5.22 nM	Nc1nc(N2CCC3(CC2)Cc2ccccc2[C@H]3N)cnc1Sc1ccnc(N2CCOCC2)c1Cl [Example 101, (S)-1′-(6-amino-5-((3-chloro-2-morpholinopyridin-4-yl)thio)pyrazin-2-yl)-1,3-dihydrospiro[indene-2,4′-piperidin]-1-amine]
42.6 nM	3.75 nM	Nc1nc(N2CCC3(CC2)Cc2ccccc2[C@H]3N)cnc1Sc1ccnc(N2CC(F)(F)C2)c1Cl [Example 102, (S)-1′-(6-amino-5-((3-chloro-2-(3,3-difluoroazetidin-1-yl)pyridin-4-yl)thio)pyrazin-2-yl)-1,3-dihydrospiro[indene-2,4′-piperidin]-1-amine]
47 nM	0.66 nM	Nc1nc(N2CCC3(CC2)Cc2ccccc2[C@H]3N)cnc1Sc1ccnc(N2CCCC2)c1Cl [Example 103, (S)-1′-(6-amino-5-((3-chloro-2-(pyrrolidin-1-yl)pyridin-4-yl)thio)pyrazin-2-yl)-1,3-dihydrospiro[indene-2,4′-piperidin]-1-amine]
10.9 nM	1.56 nM	Cc1nc(N2CCC3(CC2)Cc2ccccc2[C@H]3N)c(CO)nc1-c1cccc(Cl)c1Cl [Example 105, (S)-(3-(1-amino-1,3-dihydrospiro[indene-2,4′-piperidin]-1′-yl)-6-(2,3-dichlorophenyl)-5-methylpyrazin-2-yl)methanol]
137 nM	7.71 nM	Nc1nc(N2CCC3(CC2)CCC2(CC2)[C@H]3N)cnc1Sc1ccnc(N)c1Cl [Example 151, (R)-8-(6-amino-5-((2-amino-3-chloropyridin-4-yl)thio)pyrazin-2-yl)-8-azadispiro[2.1.55.23]dodecan-4-amine]
25.9 nM	6.81 nM	Cc1nc(N2CCC3(CC2)Cc2ccccc2[C@H]3N)c(CO)nc1Sc1ccnc(N)c1Cl [Example 170, (S)-(3-(1-amino-1,3-dihydrospiro[indene-2,4′-piperidin]-1′-yl)-6-((2-amino-3-chloropyridin-4-yl)thio)-5-methylpyrazin-2-yl)methanol]
78.5 nM	3.78 nM	Nc1nc(N2CCC3(CC=C(C4CC4)[C@H]3N)CC2)c(F)nc1Sc1ccnc(N)c1Cl [Example 182, (S)-8-(6-amino-5-((2-amino-3-chloropyridin-4-yl)thio)-3-fluoropyrazin-2-yl)-2-cyclopropyl-8-azaspiro[4.5]dec-2-en-1-amine]
105 nM	6.7 nM	Cc1nc(N2CCC3(CC2)Cc2ccccc2[C@H]3N)c(CO)nc1Sc1ccnc(N)n1 [Example 183, (S)-(3-(1-amino-1,3-dihydrospiro[indene-2,4′-piperidin]-1′-yl)-6-((2-aminopyrimidin-4-yl)thio)-5-methylpyrazin-2-yl)methanol]
56.5 nM	4.25 nM	CC1=CCC2(CCN(c3nc(N)c(Sc4ccnc(N)c4Cl)nc3F)CC2)[C@@H]1N [Example 184, (S)-8-(6-amino-5-((2-amino-3-chloropyridin-4-yl)thio)-3-fluoropyrazin-2-yl)-2-methyl-8-azaspiro[4.5]dec-2-en-1-amine]

Source: patent US20210355105A1, “REGULATOR OF NITROGEN-CONTAINING HETEROAROMATIC DERIVATIVES, PREPARATION METHOD THEREFOR AND USE THEREOF” (Jiangsu Hansoh Pharmaceutical Group Co., Ltd., priority 2018, published 2021)
